Data from ChEMBL document CHEMBL1146350, “Synthesis of some new bioactive 3-amino-2-mercapto-5,6,7,8-tetrahydro[1]benzothieno[2,3-d]pyrimidin-4(3H)-one derivatives” (2007).
Values after ≈ are worked out from the molar mass of the structure shown. Active and inactive are the calls of the source. The calls are words filed in the database; no cut-off is given here.

How the values were obtained:
Rattus norvegicus [1] = experiment: Antiinflammatory activity in Wister Albino rat assessed as inhibition of paw edema at 50 mg/kg, po after 3hrs; assay type: functional
Staphylococcus aureus = experiment: Antibacterial activity against Staphylococcus aureus ATCC 25923 by disc diffusion method; assay type: functional; settings: for MIC: Staphylococcus aureus, ATCC 25923, read-out: MIC
Aspergillus flavus = experiment: Antifungal activity against Aspergillus flavus NCIM 524 by serial plate dilution method; assay type: functional; settings: for MIC: Aspergillus flavus, NCIM 524
Pseudomonas aeruginosa = experiment: Antibacterial activity against Pseudomonas aeruginosa ATCC 27853 by disc diffusion method; assay type: functional; settings: for MIC: Pseudomonas aeruginosa, ATCC 27853
Escherichia coli = experiment: Antibacterial activity against Escherichia coli ATCC 25922 by disc diffusion method; assay type: functional; settings: for MIC: Escherichia coli, ATCC 25922
Mus musculus [2] = experiment: Effect on coordination in Swiss Albino mouse at 50 mg/kg by rotarod accelorod test; assay type: functional
Talaromyces marneffei = experiment: Antifungal activity against Penicillium marneffei by serial plate dilution method; assay type: functional; settings: for MIC: Talaromyces marneffei
Mus musculus [3] = experiment: Antianxiety study in Swiss Albino mouse assessed as time spent in open arm at 50 mg/kg by elevated plus maze model; assay type: functional
Mus musculus [4] = experiment: Antianxiety study in Swiss Albino mouse assessed as ratio of number of entreis in open arm to total entries at 50 mg/kg by elevated plus maze test; assay type: functional
Mus musculus [5] = organism: Mus musculus; experiment: Effect on learning and memory in Swiss Albino mouse assessed as latent period on second day; assay type: functional
Mus musculus [6] = experiment: Anticonvulsant activity in Swiss Albino mouse assessed as duration of seizure at 2 mg/kg, po by PTZ induced seizure test; assay type: functional
Mus musculus [7] = experiment: Anticonvulsant activity in Swiss Albino mouse assessed as mortality at 50 mg/kg, po by PTZ induced seizure test; assay type: functional, organism-based; design: dose 50 mg/kg
Mus musculus [8] = experiment: Anticonvulsant activity in Swiss Albino mouse assessed as duration of seizure at 50 mg/kg, po by PTZ induced seizure test; assay type: functional
Aspergillus fumigatus = experiment: Antifungal activity against Aspergillus fumigatus NCIM 902 by serial plate dilution method; assay type: functional; settings: for MIC: Aspergillus fumigatus, NCIM 902
Klebsiella pneumoniae = experiment: Antibacterial activity against Klebsiella pneumoniae by disc diffusion method; assay type: functional; settings: for MIC: Klebsiella pneumoniae
Mus musculus [9] = experiment: Antianxiety study in Swiss Albino mouse assessed as time spent in close arm at 50 mg/kg by elevated plus maze model; assay type: functional
Trichophyton benhamiae = experiment: Antifungal activity against Trichophyton mentagrophytes by serial plate dilution method; assay type: functional, Arthroderma benhamiae; settings: for MIC: Trichophyton benhamiae
Mus musculus [10] = organism: Mus musculus; experiment: Effect on learning and memory in Swiss Albino mouse assessed as latent period on first day; assay type: functional
Rattus norvegicus [11] = experiment: Antiinflammatory activity in Wister Albino rat assessed as inhibition of paw edema at 1.5 mg/kg, po after 3hrs; assay type: functional
Mus musculus [12] = experiment: Anticonvulsant activity in Swiss Albino mouse assessed as latency period at 50 mg/kg, po by PTZ induced seizure test; assay type: functional, organism-based; design: dose 50 mg/kg

Row | SMILES | inhibition in vivo at 50 mg/kg (Rattus norvegicus [1]) | inhibition zone (IZ) (Staphylococcus aureus) | MIC (Staphylococcus aureus) | inhibition zone (IZ) (Aspergillus flavus) | MIC (Aspergillus flavus) | inhibition zone (IZ) (Pseudomonas aeruginosa) | MIC (Pseudomonas aeruginosa) | inhibition zone (IZ) (Escherichia coli) | MIC (Escherichia coli) | Activity (Mus musculus [2]) | inhibition zone (IZ) (Talaromyces marneffei) | MIC (Talaromyces marneffei) | Activity (Mus musculus [3]) | Activity (Mus musculus [4]) | Activity (Mus musculus [5]) | Activity (Mus musculus [6]) | Activity (Mus musculus [7]) | Activity (Mus musculus [8]) | inhibition zone (IZ) (Aspergillus fumigatus) | MIC (Aspergillus fumigatus) | further results
1 | Cc1nn2c(=O)c3c4c(sc3nc2s1)CCCC4 | 34.6% | 20 mm | 10 µg/mL (≈ 36.1 µM) | 12 mm | 80 µg/mL (≈ 288 µM) | 22 mm | 6.25 µg/mL (≈ 22.5 µM) | 18 mm | 10 µg/mL (≈ 36.1 µM) | 284 s | 16 mm | 12.5 µg/mL (≈ 45.1 µM) | 4 s | 16.67% | 25 s | 3600 s | Active | 0 s | 16 mm | 12.5 µg/mL (≈ 45.1 µM) | inhibition zone (IZ) (Klebsiella pneumoniae): 20 mm; MIC (Klebsiella pneumoniae): 10 µg/mL (≈ 36.1 µM); Activity (Mus musculus [9]): 285 s; inhibition zone (IZ) (Trichophyton benhamiae): 7 mm; MIC (Trichophyton benhamiae): > 100 µg/mL; Activity (Mus musculus [10]): 39 s
2 | COc1ccc2c(c1)c(CC(=O)O)c(C)n2C(=O)c1ccc(Cl)cc1 [INDOMETHACIN] |  |  |  |  |  |  |  |  |  |  |  |  |  |  |  |  |  |  |  |  | inhibition in vivo at 1.5 mg/kg (Rattus norvegicus [11]): 53.3%
3 | Cc1cc(C)cc(-c2nn3c(=O)c4c5c(sc4nc3s2)CCCC5)c1 | 31.1% | 8 mm | > 100 µg/mL | 7 mm | > 100 µg/mL | 18 mm | 60 µg/mL (≈ 163 µM) | 16 mm | 60 µg/mL (≈ 163 µM) | 256 s | 18 mm | 12.5 µg/mL (≈ 34 µM) | 56 s | 7.14% | 18 s | 68 s | Active | 0 s | 18 mm | 12.5 µg/mL (≈ 34 µM) | inhibition zone (IZ) (Klebsiella pneumoniae): 20 mm; MIC (Klebsiella pneumoniae): 10 µg/mL (≈ 27.2 µM); Activity (Mus musculus [9]): 231 s; inhibition zone (IZ) (Trichophyton benhamiae): 9 mm; MIC (Trichophyton benhamiae): 80 µg/mL (≈ 218 µM); Activity (Mus musculus [10]): 34 s
4 | CN1C(=O)CN=C(c2ccccc2)c2cc(Cl)ccc21 |  |  |  |  |  |  |  |  |  |  |  |  |  |  |  |  |  |  |  |  | Activity (Mus musculus [12]): Active
